Here are results for one compound from patent US9254293B2, “Methods and compositions for inhibiting or reducing hair loss, acne, rosacea, prostate cancer, and BPH” (The Trustees of the University of Pennsylvania, priority 2006, dated 2016).

Molecules are shown by their SMILES. Entries after “also recorded” stand apart in the source; their conditions may differ.

The test concerns wild-type c57/black mice. The test is described as follows: Topical application of PGD2 to the shaved central back of mice, effect on hair growth. Type of test: in vivo. As for the experimental part: 25 day-old (corresponding to end of the first telogen stage) wild-type c57/black mice were treated with 200 ng of PGD2 (Cayman Chemicals) diluted in 200 μl of acetone applied to the central back after shaving. Subsequent treatments were performed every 3 days, ending on day 40 For a total of […]. Photographs were taken on day 46 of life, after the end of the 2nd anagen. In the second experiment, mice were shaved and treated with 10 μg of PGD2 dissolved in 200 μl of acetone on days 66 and 69 of life, and then photographed on day #121.

`CCCCC[C@H](O)/C=C/[C@H]1C(=O)C[C@H](O)[C@@H]1C/C=C\CCCC(=O)O` [PGD2, prostaglandin D2]: for the setting “25 day-old mice, 200 ng PGD2 in 200 μl acetone on central back after shaving, every 3 days to day 40 (5 applications), photographed day 46 after end of 2nd anagen”, the “effect of PGD2 on hair growth (alopecia)” value is “baldness (alopecia); also recorded: induced alopecia”. Moreover, the “effect of PGD2 on hair regrowth” value (mice shaved, 10 μg PGD2 in 200 μl acetone on days 66 and 69 of life, photographed day 121, over 50 days after the last application) is recorded as “prevent hair regrowth”.
